Laboratory results reported in patent US10858356B2, “Pyrazolopyridine derivative having GLP-1 receptor agonist effect” (Chugai Seiyaku Kabushiki Kaisha, priority 2016, dated 2020).

Target: human GLP1R (Homo sapiens (Human), UniProt P43220)
Assay: In vitro cAMP signal activation in human GLP1R stably-expressing cell line (hGLP1R-HEK293)
Format: cell-based
Details: cAMP concentration in hGLP1R-HEK293; 100% = 1 nM human GLP-1 (7-37)

Chain of human GLP1R (P43220 24-463): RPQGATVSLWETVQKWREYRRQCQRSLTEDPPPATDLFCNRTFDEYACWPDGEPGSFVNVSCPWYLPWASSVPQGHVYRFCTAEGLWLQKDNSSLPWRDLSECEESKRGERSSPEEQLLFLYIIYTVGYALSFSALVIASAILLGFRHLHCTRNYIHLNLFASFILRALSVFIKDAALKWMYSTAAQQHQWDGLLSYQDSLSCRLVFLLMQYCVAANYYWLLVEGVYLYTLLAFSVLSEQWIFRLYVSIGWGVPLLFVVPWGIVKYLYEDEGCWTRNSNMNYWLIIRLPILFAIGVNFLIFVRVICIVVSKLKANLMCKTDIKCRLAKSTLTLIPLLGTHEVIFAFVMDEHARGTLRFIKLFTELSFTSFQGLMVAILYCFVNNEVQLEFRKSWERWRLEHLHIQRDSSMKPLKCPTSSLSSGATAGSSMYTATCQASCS

Question: With `COCCn1ncc2c(F)c(-n3ccn(-c4c5c(nn4-c4cc(C)c(Cl)c(C)c4)CCN(C(=O)c4cc6cc(C7CCOCC7)ccc6n4[C@@]4(c6noc(=O)[nH]6)C[C@@H]4C)[C@H]5C)c3=O)ccc21` [Example 45, 3-[(1S,2S)-1-[2-[(4S)-2-(4-chloro-3,5-dimethylphenyl)-3-[3-[4-fluoro-1-(2-methoxyethyl)indazol-5-yl]-2-oxoimidazol-1-yl]-4-methyl-6,7-dihydro-4H-pyrazolo[4,3-c]pyridine-5-carbonyl]-5-(oxan-4-yl)indol-1-yl]-2-methylcyclopropyl]-4H-1,2,4-oxadiazol-5-one] as the compound, how does the EC50 read?
Answer: 1.6 nM

Question: For `Cc1cc(-n2nc3c(c2-n2ccn(-c4ccc5c(cnn5CC(F)(F)F)c4F)c2=O)[C@H](C)N(C(=O)c2cc4cc(C5CCOCC5)ccc4n2[C@@]2(c4noc(=O)[nH]4)C[C@@H]2C)CC3)ccc1F` [Example 46, 3-[(1S,2S)-1-[2-[(4S)-2-(4-fluoro-3-methylphenyl)-3-[3-[4-fluoro-1-(2,2,2-trifluoroethyl)indazol-5-yl]-2-oxoimidazol-1-yl]-4-methyl-6,7-dihydro-4H-pyrazolo[4,3-c]pyridine-5-carbonyl]-5-(oxan-4-yl)indol-1-yl]-2-methylcyclopropyl]-4H-1,2,4-oxadiazol-5-one], which EC50 is on record?
Answer: 3.3 nM

Question: How did the EC50 turn out when `COCCn1ncc2c(F)c(-n3ccn(-c4c5c(nn4-c4ccc(F)c(C)c4)CCN(C(=O)c4cc6cc(C7CCOCC7)ccc6n4[C@@]4(c6noc(=O)[nH]6)C[C@@H]4C)[C@H]5C)c3=O)ccc21` [Example 47, 3-[(1S,2S)-1-[2-[(4S)-3-[3-[4-fluoro-1-(2-methoxyethyl)indazol-5-yl]-2-oxoimidazol-1-yl]-2-(4-fluoro-3-methylphenyl)-4-methyl-6,7-dihydro-4H-pyrazolo[4,3-c]pyridine-5-carbonyl]-5-(oxan-4-yl)indol-1-yl]-2-methylcyclopropyl]-4H-1,2,4-oxadiazol-5-one] was run?
Answer: 2 nM

Question: How did the EC50 turn out when `COCCn1ncc2c(F)c(-n3ccn(-c4c5c(nn4-c4ccc(F)c(C)c4)CCN(C(=O)c4cc6cc([C@H]7CCOC(C)(C)C7)ccc6n4[C@@]4(c6noc(=O)[nH]6)C[C@@H]4C)[C@H]5C)c3=O)ccc21` [Example 48, 3-[(1S,2S)-1-[5-[(4S)-2,2-dimethyloxan-4-yl]-2-[(4S)-3-[3-[4-fluoro-1-(2-methoxyethyl)indazol-5-yl]-2-oxoimidazol-1-yl]-2-(4-fluoro-3-methylphenyl)-4-methyl-6,7-dihydro-4H-pyrazolo[4,3-c]pyridine-5-carbonyl]indol-1-yl]-2-methylcyclopropyl]-4H-1,2,4-oxadiazol-5-one] was run?
Answer: 3 nM

Question: For `Cc1cc(-n2nc3c(c2-n2ccn(-c4ccc5c(cnn5C)c4Cl)c2=O)[C@H](C)N(C(=O)c2cc4cc([C@H]5CCOC(C)(C)C5)ccc4n2[C@@]2(c4noc(=O)[nH]4)C[C@@H]2C)CC3)ccc1F` [Example 49, 3-[(1S,2S)-1-[2-[(4S)-3-[3-(4-chloro-1-methylindazol-5-yl)-2-oxoimidazol-1-yl]-2-(4-fluoro-3-methylphenyl)-4-methyl-6,7-dihydro-4H-pyrazolo[4,3-c]pyridine-5-carbonyl]-5-[(4S)-2,2-dimethyloxan-4-yl]indol-1-yl]-2-methylcyclopropyl]-4H-1,2,4-oxadiazol-5-one], which EC50 is on record?
Answer: 3.8 nM

Question: For `Cc1cc(-n2nc3c(c2-n2ccn(-c4ccc5c(cnn5C)c4)c2=O)[C@H](C)N(C(=O)c2cc4cc([C@H]5CCOC(C)(C)C5)ccc4n2[C@@]2(c4noc(=O)[nH]4)C[C@@H]2C)CC3)ccc1F` [Example 50, 3-[(1S,2S)-1-[5-[(4S)-2,2-dimethyloxan-4-yl]-2-[(4S)-2-(4-fluoro-3-methylphenyl)-4-methyl-3-[3-(1-methylindazol-5-yl)-2-oxoimidazol-1-yl]-6,7-dihydro-4H-pyrazolo[4,3-c]pyridine-5-carbonyl]indol-1-yl]-2-methylcyclopropyl]-4H-1,2,4-oxadiazol-5-one], which EC50 is on record?
Answer: 2.9 nM

Question: How did the EC50 turn out when `Cc1cc(-n2nc3c(c2-n2ccn(-c4ccc5c(cnn5C)c4)c2=O)CN(C(=O)c2cc4cc(N5CCOC6(CC6)C5)ccc4n2[C@@]2(c4noc(=O)[nH]4)C[C@@H]2C)CC3)cc(C)c1F` [compound 52] was run?
Answer: 6.7 nM

Question: `CC[C@H]1CN(c2ccc3c(c2)cc(C(=O)N2CCc4nn(-c5cc(C)c(F)c(C)c5)c(-n5ccn(-c6ccc7c(cnn7C)c6)c5=O)c4C2)n3[C@@]2(c3noc(=O)[nH]3)C[C@@H]2C)CCO1` [compound 53] was tested. Which EC50 did it give?
Answer: 2.9 nM

Question: `Cc1cc(-n2nc3c(c2-n2ccn(-c4ccc5c(cnn5C)c4)c2=O)CN(C(=O)c2cc4cc(C5CCOCC5)ccc4n2[C@@]2(c4noc(=O)[nH]4)C[C@@H]2C)CC3)cc(C)c1F` [compound 54, 3-[(1S,2S)-1-[2-[2-(4-fluoro-3,5-dimethylphenyl)-3-[3-(1-methylindazol-5-yl)-2-oxoimidazol-1-yl]-6,7-dihydro-4H-pyrazolo[4,3-c]pyridine-5-carbonyl]-5-(oxan-4-yl)indol-1-yl]-2-methylcyclopropyl]-4H-1,2,4-oxadiazol-5-one] was tested. Which EC50 did it give?
Answer: 3.9 nM

Question: `Cc1cc(-n2nc3c(c2-n2ccn(-c4ccc5c(cnn5C)c4)c2=O)CN(C(=O)c2cc4cc(C5CCOCC5)ccc4n2[C@@]2(c4noc(=O)[nH]4)C[C@@H]2C)CC3)cc(C)c1Cl` [compound 55, 3-[(1S,2S)-1-[2-[2-(4-chloro-3,5-dimethylphenyl)-3-[3-(1-methylindazol-5-yl)-2-oxoimidazol-1-yl]-6,7-dihydro-4H-pyrazolo[4,3-c]pyridine-5-carbonyl]-5-(oxan-4-yl)indol-1-yl]-2-methylcyclopropyl]-4H-1,2,4-oxadiazol-5-one] was tested. Which EC50 did it give?
Answer: 3.7 nM

Question: `COCCn1ncc2cc(-n3ccn(-c4c5c(nn4-c4cc(C)c(F)c(C)c4)CCN(C(=O)c4cc6cc(C7CCOCC7)cnc6n4[C@@]4(c6noc(=O)[nH]6)C[C@@H]4C)C5)c3=O)ccc21` [compound 56, 3-[(1S,2S)-1-[2-[2-(4-fluoro-3,5-dimethylphenyl)-3-[3-[1-(2-methoxyethyl)indazol-5-yl]-2-oxoimidazol-1-yl]-6,7-dihydro-4H-pyrazolo[4,3-c]pyridine-5-carbonyl]-5-(oxan-4-yl)pyrrolo[2,3-b]pyridin-1-yl]-2-methylcyclopropyl]-4H-1,2,4-oxadiazol-5-one] was tested. Which EC50 did it give?
Answer: 3.4 nM

Question: Which EC50 does the source give for `COCCN(C(C)=O)C12C3C4C1C1C2C3C41n1ccn(-c2c3c(nn2-c2cc(C)c(F)c(C)c2)CCN(C(=O)c2cc4cc(C5CCOCC5)ccc4n2[C@@]2(c4noc(=O)[nH]4)C[C@@H]2C)[C@H]3C)c1=O` (stereo partly drawn) [compound 57, N-[4-[3-[(4S)-2-(4-fluoro-3,5-dimethylphenyl)-4-methyl-5-[1-[(1S,2S)-2-methyl-1-(5-oxo-4H-1,2,4-oxadiazol-3-yl)cyclopropyl]-5-(oxan-4-yl)indole-2-carbonyl]-6,7-dihydro-4H-pyrazolo[4,3-c]pyridin-3-yl]-2-oxoimidazol-1-yl]cuban-1-yl]-N-(2-methoxyethyl)acetamide] here?
Answer: 8.1 nM

Question: How did the EC50 turn out when `COCCn1ncc2cc(-n3ccn(-c4c5c(nn4-c4ccc(F)c(C)c4)CCN(C(=O)c4cc6cc(N7CCOC(C)(C)C7)ccc6n4[C@@]4(c6noc(=O)[nH]6)C[C@@H]4C)C5)c3=O)ccc21` [compound 58, 3-[(1S,2S)-1-[5-(2,2-dimethylmorpholin-4-yl)-2-[2-(4-fluoro-3-methylphenyl)-3-[3-[1-(2-methoxyethyl)indazol-5-yl]-2-oxoimidazol-1-yl]-6,7-dihydro-4H-pyrazolo[4,3-c]pyridine-5-carbonyl]indol-1-yl]-2-methylcyclopropyl]-4H-1,2,4-oxadiazol-5-one] was run?
Answer: 7.6 nM

Question: For `Cc1cc(-n2nc3c(c2-n2ccn(-c4ccc5c(cnn5C)c4)c2=O)CN(C(=O)c2cc4cc([C@H]5CCOC(C)(C)C5)ccc4n2[C@@]2(c4noc(=O)[nH]4)C[C@@H]2C)CC3)cc(C)c1F` [compound 59, 3-[(1S,2S)-1-[5-[(4S)-2,2-dimethyloxan-4-yl]-2-[2-(4-fluoro-3,5-dimethylphenyl)-3-[3-(1-methylindazol-5-yl)-2-oxoimidazol-1-yl]-6,7-dihydro-4H-pyrazolo[4,3-c]pyridine-5-carbonyl]indol-1-yl]-2-methylcyclopropyl]-4H-1,2,4-oxadiazol-5-one], which EC50 is on record?
Answer: 1.5 nM

Question: Which EC50 does the source give for `Cc1cc(C)cc(-n2nc3c(c2-n2ccn(-c4ccc5c(cnn5C)c4)c2=O)CN(C(=O)c2cc4cc(C5CCOC(C)(C)C5)ccc4n2[C@@]2(c4noc(=O)[nH]4)C[C@@H]2C)CC3)c1` (stereo partly drawn) [compound 60] here?
Answer: 4.9 nM

Question: Which EC50 does the source give for `Cc1cc(-n2nc3c(c2-n2ccn(-c4ccc5c(cnn5C)c4)c2=O)[C@H](C)N(C(=O)c2cc4cc([C@H]5CCO[C@@H](C)C5)ccc4n2[C@@]2(c4noc(=O)[nH]4)C[C@@H]2C)CC3)cc(C)c1F` [compound 61, 3-[(1S,2S)-1-[2-[(4S)-2-(4-fluoro-3,5-dimethylphenyl)-4-methyl-3-[3-(1-methylindazol-5-yl)-2-oxoimidazol-1-yl]-6,7-dihydro-4H-pyrazolo[4,3-c]pyridine-5-carbonyl]-5-[(2S,4S)-2-methyloxan-4 yl]indol-1-yl]-2-methylcyclopropyl]-4H-1,2,4-oxadiazol-5-one] here?
Answer: 1.6 nM

Question: `COCCn1ncc2cc(-n3ccn(-c4c5c(nn4-c4cc(C)c(F)c(C)c4)CCN(C(=O)c4cc6cc([C@H]7CCO[C@@H](C)C7)ccc6n4[C@@]4(c6noc(=O)[nH]6)C[C@@H]4C)[C@H]5C)c3=O)ccc21` [compound 62, 3-[(1S,2S)-1-[2-[(4S)-2-(4-fluoro-3,5-dimethylphenyl)-3-[3-[1-(2-methoxyethyl)indazol-5-yl]-2-oxoimidazol-1-yl]-4-methyl-6,7-dihydro-4H-pyrazolo[4,3-c]pyridine-5-carbonyl]-5-[(2S,4S)-2-methyloxan-4-yl]indol-1-yl]-2-methylcyclopropyl]-4H-1,2,4-oxadiazol-5-one] was tested. Which EC50 did it give?
Answer: 1.1 nM

Question: `COCCn1ncc2cc(-n3ccn(-c4c5c(nn4-c4cc(C)c(F)c(C)c4)CCN(C(=O)c4cc6cc(C7CCOCC7)cc(F)c6n4[C@@]4(c6noc(=O)[nH]6)C[C@@H]4C)[C@H]5C)c3=O)ccc21` [compound 63, 3-[(1S,2S)-1-[7-fluoro-2-[(4S)-2-(4-fluoro-3,5-dimethylphenyl)-3-[3-[1-(2-methoxyethyl)indazol-5-yl]-2-oxoimidazol-1-yl]-4-methyl-6,7-dihydro-4H-pyrazolo[4,3-c]pyridine-5-carbonyl]-5-(oxan-4-yl)indol-1-yl]-2-methylcyclopropyl]-4H-1,2,4-oxadiazol-5-one] was tested. Which EC50 did it give?
Answer: 1.1 nM
